Measured values from publication PMC9603901, “Therapeutic Potential of Antimicrobial Peptide PN5 against Multidrug-Resistant E. coli and Anti-Inflammatory Activity in a Septic Mouse Model” (Microbiology Spectrum, 2022).
In brackets after ≈: the same amount, converted by molar mass. Read-outs that look alike come from different tables or passages of the source. Where no end group is shown, it is not given here.

How the values were obtained:
[1] = test system: MDR E. coli ASEC 11; assay: microbe, parasite or virus in culture; type: cell-based, Escherichia coli; conditions: microdilution, LB, 18 to 24 h, 37°C, three independent experiments
Description: (§1) Bacterial cells were cultured at 37°C in the appropriate culture media with shaking (180 rpm). Luria-Bertani broth (LB) (244620; BD Difco) was used for E. coli ATCC 25922, ASEC strains, and B. subtilis KCTC 2217. Nutrient broth (NB) (234000; BD Difco) was used for P. aeruginosa ATCC 27853, S. Typhimurium KCTC 1926, and A. baumannii KCTC 2508. Tryptic soy broth (TSB) (211825; BD Difco) was used for S. aureus ATCC 25923. Finally, brain heart infusion (BHI) (237500; BD Difco) was used for L. monocytogenes KCTC 3710. The antimicrobial activity of each peptide was determined using microdilution assays. To this end, 2-fold serial dilution series of each peptide (from 1 to 64 μM) were added to duplicate media with 10 mM sodium phosphate buffer (pH 7.4). Fifty microliters of the peptide and antibiotic solution was added to each well of a 96-well plate (32096, surface nontreatment; SPL Life Sciences). Then, 50 μL of 2 × 10^5 CFU mL^−1 of bacteria was added to each well, and the samples were incubated for 18 to 24 h without shaking at 37°C.

[2] = test system: MDR E. coli ASEC 12; assay: microbe, parasite or virus in culture; type: cell-based, Escherichia coli; conditions: microdilution, LB, 18 to 24 h, 37°C, three independent experiments
Description: as §1

[3] = test system: MDR E. coli ASEC 13; assay: microbe, parasite or virus in culture; type: cell-based, Escherichia coli; conditions: microdilution, LB, 18 to 24 h, 37°C, three independent experiments
Description: as §1

[4] = test system: MDR E. coli ASEC 14; assay: microbe, parasite or virus in culture; type: cell-based, Escherichia coli; conditions: microdilution, LB, 18 to 24 h, 37°C, three independent experiments
Description: as §1

[5] = test system: MDR E. coli ASEC 15; assay: microbe, parasite or virus in culture; type: cell-based, Escherichia coli; conditions: microdilution, LB, 18 to 24 h, 37°C, three independent experiments
Description: as §1

[6] = test system: MDR E. coli ASEC 16; assay: microbe, parasite or virus in culture; type: cell-based, Escherichia coli; conditions: microdilution, LB, 18 to 24 h, 37°C, three independent experiments
Description: as §1

[7] = test system: MDR E. coli ASEC 18; assay: microbe, parasite or virus in culture; type: cell-based, Escherichia coli; conditions: microdilution, LB, 18 to 24 h, 37°C, three independent experiments
Description: as §1

[8] = test system: MDR E. coli ASEC 19; assay: microbe, parasite or virus in culture; type: cell-based, Escherichia coli; conditions: microdilution, LB, 18 to 24 h, 37°C, three independent experiments
Description: as §1

[9] = test system: MDR E. coli ASEC 1; assay: microbe, parasite or virus in culture; type: cell-based, Escherichia coli; conditions: microdilution, LB, 18 to 24 h, 37°C, three independent experiments
Description: as §1

[10] = test system: MDR E. coli ASEC 3; assay: microbe, parasite or virus in culture; type: cell-based, Escherichia coli; conditions: microdilution, LB, 18 to 24 h, 37°C, three independent experiments
Description: as §1

[11] = test system: MDR E. coli ASEC 4; assay: microbe, parasite or virus in culture; type: cell-based, Escherichia coli; conditions: microdilution, LB, 18 to 24 h, 37°C, three independent experiments
Description: as §1

[12] = test system: MDR E. coli ASEC 5; assay: microbe, parasite or virus in culture; type: cell-based, Escherichia coli; conditions: microdilution, LB, 18 to 24 h, 37°C, three independent experiments
Description: as §1

[13] = test system: MDR E. coli ASEC 6; assay: microbe, parasite or virus in culture; type: cell-based, Escherichia coli; conditions: microdilution, LB, 18 to 24 h, 37°C, three independent experiments
Description: as §1

[14] = test system: MDR E. coli ASEC 8; assay: microbe, parasite or virus in culture; type: cell-based, Escherichia coli; conditions: microdilution, LB, 18 to 24 h, 37°C, three independent experiments
Description: as §1

[15] = test system: MDR E. coli ASEC 9; assay: microbe, parasite or virus in culture; type: cell-based, Escherichia coli; conditions: microdilution, LB, 18 to 24 h, 37°C, three independent experiments
Description: as §1

[16] = test system: ASEC 16 biofilm; conditions: crystal violet A595, 24 h, three independent experiments
Description: (§2) Crystal violet staining was performed to determine the degree of biofilm formation by the E. coli 25922, S. aureus 25923, and ASEC strains. E. coli 25922 and S. aureus 25923 were cultured overnight in LB and TSB media with aeration at 180 rpm, respectively. Bacterial suspensions with 0.2% glucose (5 × 10^5 CFU mL^−1) were added to a 96-well plate (30096, surface treatment; SPL Life Sciences) and incubated for 24 h at 37°C. The supernatant was removed and fixed with 100% methanol. Next, 100 μL of crystal violet was added to the plate and incubated to dye the cells for 1 h, followed by rinsing the cells three times with distilled water (dH2O). After the crystal violet was dissolved with 95% ethanol, the mass of biofilm formation at 595 nm was measured using a Versa Max microplate reader (Molecular Devices). The inhibitory effect of PN5 against biofilm formed by E. coli 25922, S. aureus 25923, and three MDR E. coli strains (ASEC 2, 16, and 18) were determined. These cells were cultured overnight in LB and TSB media. Bacterial suspensions (5 × 10^5 CFU mL^−1) containing 0.2% glucose were added to 96-well plates and PN5 was serially diluted to a final concentration of 32 μM. The minimal biofilm inhibitory concentration (MBIC) was determined in three independent experiments. The percentage of biofilm formation was measured using the equation (A595 of treated biofilm/A595 of untreated biofilm) × 100. Similarly, the MDR ASEC 1 to 19 strains were cultured overnight in LB medium and seeded into 96-well plates with medium containing 0.2% glucose at 5 × 10^5 CFU mL^−1 of the bacterial suspension. Biofilm staining was performed as described above. SYTO 9 (6 μM) fluorescence in LIVE/DEAD BacLight was used to visualize the degree of biofilm formation. […] After 24 h, the culture supernatant of the peptide and bacteria was discarded, and the pellet was fixed with 100% methanol. A fluorescence mixture of SYTO 9 and propidium iodide was then added to each well, and the fluorescence was evaluated with an EVOS FL color imaging system (Thermo Fisher Scientific) with a 4× objective ([22]).

[17] = test system: ASEC 18 biofilm; conditions: crystal violet A595, 24 h, three independent experiments
Description: as §2

[18] = test system: ASEC 2 biofilm; conditions: for biofilm formation visualized with SYTO 9: antibiotics at 32 μM, 24 h, SYTO 9 staining (Fig. 3F); for MBIC50: crystal violet A595, 24 h, three independent experiments
Description: as §2

[19] = test system: MDR E. coli ASEC 1; design: method as in Asan hospital; key to susceptibility category: S: susceptible; R: resistant; I: intermediate; conditions: ref Asan hospital, cited from earlier work; for MIC: ASEC 1 (carbapenemase NDM-1), resistance information of clinical isolate; for susceptibility category: ASEC 1
[20] = test system: MDR E. coli ASEC 5; design: method as in Asan hospital; key to susceptibility category: S: susceptible; R: resistant; I: intermediate; conditions: ref Asan hospital, cited from earlier work; for MIC: ASEC 5 (ESBL), resistance information of clinical isolate; for susceptibility category: ASEC 5
[21] = test system: MDR E. coli ASEC 16; design: method as in Asan hospital; key to susceptibility category: S: susceptible; R: resistant; I: intermediate; conditions: ref Asan hospital, cited from earlier work; for MIC: ASEC 16 (AmpC), resistance information of clinical isolate; for susceptibility category: ASEC 16
[22] = Escherichia coli, read-out: MIC

Compound	MIC [1, 22] [µM]	MIC [2, 22] [µM]	MIC [3, 22] [µM]	MIC [4, 22] [µM]	MIC [5, 22] [µM]	MIC [6, 22] [µM]	MIC [7, 22] [µM]	MIC [8, 22] [µM]	MIC [9, 22] [µM]	MIC [10, 22] [µM]	MIC [11, 22] [µM]	MIC [12, 22] [µM]	MIC [13, 22] [µM]	MIC [14, 22] [µM]	MIC [15, 22] [µM]	MBIC50 [16]	MBIC50 [17]	biofilm formation visualized with SYTO 9 [18]	MBIC50 [18]	MIC [19] [µg/mL]	further results
C[C@@H](O)[C@H]1C(=O)N2C(C(=O)O)=C(S[C@@H]3CN[C@H](C(=O)N(C)C)C3)[C@H](C)[C@H]12 [Meropenem]	< 1	16 (≈ 6.14 µg/mL)	2 (≈ 0.767 µg/mL)	8 (≈ 3.07 µg/mL)	< 1	< 1	< 1	8 (≈ 3.07 µg/mL)	1 (≈ 0.383 µg/mL)	> 32	> 32	8 (≈ 3.07 µg/mL)	16 (≈ 6.14 µg/mL)	< 1	< 1	<2 (<0.77) μM	<2 (<0.77) μM	did not inhibit biofilm formation	64 (24.54) μM	8 (≈ 20.9 µM)	susceptibility category [19]: R; MIC [20]: <= 4 μg mL-1; susceptibility category [20]: S; MIC [21]: <= 1 μg mL-1; susceptibility category [21]: S
CC(C)(O/N=C(\C(=O)N[C@@H]1C(=O)N2C(C(=O)[O-])=C(C[n+]3ccccc3)CS[C@H]12)c1csc(N)n1)C(=O)O [Ceftazidime]	> 32	> 32	> 32	> 32	> 32	> 32	> 32	> 32	> 32	> 32	> 32	> 32	> 32	> 32	> 32	>128 (>69.95) μM	>128 (>69.95) μM	did not inhibit biofilm formation	>128 (>69.95) μM	> 16	susceptibility category [19]: R; MIC [20]: > 16 µg/mL; susceptibility category [20]: R; MIC [21]: > 16 µg/mL; susceptibility category [21]: R
FKFLARTGKFL-NH2 [PN5]	–	–	–	–	–	–	–	–	–	–	–	–	–	–	–	16 (21.22) μM	16 (21.22) μM	–	8 (10.61) μM	–	MIC [1]: 2 (2.65) μM; MIC [2]: 2 (2.65) μM; MIC [3]: 8 (10.61) μM; MIC [4]: 2 (2.65) μM; MIC [5]: 16 (21.22) μM; MIC [6]: 4 (5.30) μM; MIC [7]: 16 (21.22) μM; MIC [8]: 8 (10.61) μM; MIC [9]: 8 (10.61) μM; MIC [10]: 8 (10.61) μM; MIC [11]: 4 (5.30) μM; MIC [12]: 8 (10.61) μM; MIC [13]: 4 (5.30) μM; MIC [14]: 4 (5.30) μM; MIC [15]: 16 (21.22) μM
CO/N=C(\C(=O)N[C@@H]1C(=O)N2C(C(=O)O)=C(COC(C)=O)CS[C@H]12)c1csc(N)n1 [Cefotaxime]	> 32	> 32	> 32	> 32	> 32	> 32	> 32	> 32	> 32	> 32	> 32	> 32	> 32	> 32	> 32	128 (58.3) μM	>128 (>58.3) μM	did not inhibit biofilm formation	>128 (>58.3) μM	> 32	susceptibility category [19]: R; MIC [20]: > 32 µg/mL; susceptibility category [20]: R; MIC [21]: > 32 µg/mL; susceptibility category [21]: R
